Test results taken from paper PMC7395068, “The evolution of strategies to minimise the risk of human drug-induced liver injury (DILI) in drug discovery and development” (Archives of Toxicology, 2020).
Read-outs that look alike come from different tables or passages of the source.

Experiments:
[1] = cited from earlier work
[2] = system: primary human hepatocytes, NIH3T3 fibroblasts, BSEP, CYP3A4; conditions: cited from earlier work
[3] = system: THLE or HepG2 cells, isolated mitochondria, BSEP; conditions: cited from earlier work
[4] = system: PHH; conditions: cited from earlier work
[5] = system: hLiMTs; conditions: cited from earlier work
[6] = system: HepG2 C3A spheroid, BSEP, Glu/Gal in HepG2 cells, bioactivation; conditions: cited from earlier work
[7] = plasma free fraction; cited from earlier work
[8] = cited from earlier work; remark: listed apart in the source
[9] = ref Chen 2011; cited from earlier work
[10] = system: hLiMTs; assay: Combined HCI (HCS) and cellular ATP 3D assay in hLiMTs; conditions: for AC50 / minimal effective concentration: Homo sapiens
[11] = system: HepaRG spheroids; assay: Combined HCI (HCS) and cellular ATP 3D assay in HepaRG spheroids; conditions: for AC50 / minimal effective concentration: Homo sapiens
Description: 3D spheroid models consisting of either primary human hepatocytes with non-parenchymal cells (hLiMT’s) or HepaRG cells (HepaRG spheroids) were assessed for size (MS), oxidative stress (OS), MMP, mitochondrial mass (MM), GSH and cellular ATP content following drug exposure. Fluorescent images are acquired using the confocal mode of an ArrayScan™ XTI HCI reader (ThermoScientific) following which cellular ATP was measured using 3D CellTiter-Glo (Promega).

[12] = In vitro Assay, ref Schadt 2015
[13] = Modeled in vitro assays (cytotoxicity, mitochondrial dysfunction, BSEP), ref Aleo et al. 2019
[14] = In vitro Assay, ref Proctor 2017
[15] = Microtissue model structural based (HCI), combined HCS and ATP, MEC < 25 × Cmax.tot cut-off

In the case of `CS(=O)(=O)CCNCc1ccc(-c2ccc3ncnc(Nc4ccc(OCc5cccc(F)c5)c(Cl)c4)c3c2)o1` [lapatinib], the “DILI severity category (Chen et al. [2016])” value ([1]; LTKB DILIrank category, ref Chen et al. 2016) is given as “Most”, the “DILI severity category (Chen 2016)” value ([1]; human DILI classification, LTKB DILIrank, ref Chen et al. 2016) is given as “Most” and the DILI severity category ([1]; human DILI severity, ref Chen et al.) is given as “Most”. The “DILI +VE (5-8), DILI -VE (-4)” value ([1]; ref Chen 2016) was “+VE”, the DILI severity category ([1]; ref Chen 2016) was “vMost-DILI-Concern” and the “DILI in vitro assay prediction, Schadt (2015)” value ([2]; BSEP & Metabolism based, ref Schadt et al. 2015) was “+VE”. The “Cellular toxicity (3T3 cells)” value [2, 12] was “+VE”, the “GSH adduct HML” value [2, 12] was “+VE” and the Hepatocyte cellular toxicity [2, 12] was “-VE”. For the same compound, the “MitoTox 3T3” value [2, 12] was “-VE”, the “TDI CYP3A4” value [2, 12] was “+VE” and the hBSEP inhibition [2, 12] was “-VE”. The “Partition Hybrid HRM Score” value ([3]; In vitro Assay, ref Aleo 2019) was “+VE”, the “Ro2 Hybrid HRM Score” value ([3]; In vitro Assay, ref Aleo 2019) was “+VE” and the “Partition Hybrid HRM Score ≥4, Aleo (2019)” value [3, 13] was “+VE (Partition Hybrid HRM Score ≥4)”. For the same compound, the “Partition Hybrid HRM Score ≥8, Aleo (2019)” value [3, 13] was “+VE (Partition Hybrid HRM Score ≥8)”, the “Rule of Two hybrid HRM Score ≥3, Aleo (2019)” value [3, 13] was “+VE (Rule of Two hybrid HRM Score ≥3)” and the “Rule of Two hybrid HRM Score ≥8, Aleo (2019)” value [3, 13] was “+VE (Rule of Two hybrid HRM Score ≥8)”. The “PHH/100uM, Proctor (2017)” value ([4]; 2D PHH, ATP, IC50 threshold 100 µM, ref Proctor et al. 2017) was “+VE (IC50 threshold of 100 µM)”, the “PHH ATP <100uM” value [4, 14] was “+VE (IC50 threshold of 100 µM)” and the “hLiMTs ATP <100uM” value [5, 14] was “+VE (IC50 threshold of 100 µM)”. The “hLiMTs/100uM, Proctor (2017)” value ([5]; hLiMTs, ATP, IC50 threshold 100 µM, ref Proctor et al. 2017) was “+VE (IC50 threshold of 100 µM)”, the “Bayesian Machine Learning DILI prediction, Williams (2019)” value ([6]; Bayesian modeling, ref Williams et al. 2019) was “+VE” and the “Bayesian Machine Learning” value ([6]; In vitro Assay, ref Williams 2019) was “+VE”. For the same compound, the fu [7] was 0.010, the “Assigned DILI category” value ([8]; Chen et al. 2016 or literature alignment, ref Chen et al. 2016) was 3 and the “In vivo DILI” value ([8]; ref Aleo 2019) was “+VE”. For the same compound, the “In vivo DILI” value ([8]; ref Proctor 2017) was “+VE”, the “In vivo DILI” value ([8]; ref Schadt 2015) was “+VE” and the “In vivo DILI” value ([8]; ref Williams 2019) was “+VE”. For the same compound, the “DILI Score (FDA) (1-8)” value [9] was 8, the AC50 ([10]; read-out: ATP endpoint AC50) was 30.1 µM and the minimal effective concentration ([10]; read-out: ATP endpoint MEC) was 12.6 µM. For the same compound, the AC50 ([10]; read-out: HCS endpoint AC50) was 30.7 µM, the minimal effective concentration ([10]; read-out: HCS endpoint MEC) was 1.79 µM and the “DILI prediction hLiMTs (HCS-MEC)” value [10, 15] was “+VE (MEC < 25 × Cmax.tot cut-off)”. The “hLiMTs <25x Avg Cmax ATP” value ([10]; hLiMTs, ATP endpoint, cut-off <25x Avg Cmax) was “+ve”, the “hLiMTs <100x Avg Cmaxu ATP” value ([10]; hLiMTs, ATP endpoint, cut-off <100x Avg Cmaxu) was “-ve” and the “hLiMTs <25x Avg Cmax HCS” value ([10]; hLiMTs, HCS endpoints, cut-off <25x Avg Cmax) was “+ve”. The “hLiMTs <100x Avg Cmaxu HCS” value ([10]; hLiMTs, HCS endpoints, cut-off <100x Avg Cmaxu) was “+ve (<100x Avg Cmaxu)”, the “hLiMTs <25x Avg Cmax All” value ([10]; hLiMTs, all endpoints (ATP and HCS), cut-off <25x Avg Cmax) was “+ve” and the “hLiMTs Cmax max All” value ([10]; hLiMTs, all endpoints, Cmax max used) was “+ve”. For the same compound, the “hLiMTs Cmax min All” value ([10]; hLiMTs, all endpoints, Cmax min used) was “+ve”, the “hLiMTs <10 uM All” value ([10]; hLiMTs, all endpoints, cut-off <10 uM) was “+ve (<10 uM)” and the “hLiMTs <100x Avg Cmaxu All” value ([10]; hLiMTs, all endpoints, cut-off <100x Avg Cmaxu) was “+ve (<100x Avg Cmaxu)”. For the same compound, the “HepaRG <25x Avg Cmax ATP” value ([11]; HepaRG, ATP endpoint, cut-off <25x Avg Cmax) was “+ve”, the “HepaRG <100x Avg Cmaxu ATP” value ([11]; HepaRG, ATP endpoint, cut-off <100x Avg Cmaxu) was “+ve (<100x Avg Cmaxu)” and the “HepaRG <25x Avg Cmax HCS” value ([11]; HepaRG, HCS endpoints, cut-off <25x Avg Cmax) was “+ve”. The “HepaRG <100x Avg Cmaxu HCS” value ([11]; HepaRG, HCS endpoints, cut-off <100x Avg Cmaxu) was “+ve (<100x Avg Cmaxu)”, the “HepaRG <25x Avg Cmax All” value ([11]; HepaRG, all endpoints (ATP and HCS), cut-off <25x Avg Cmax) was “+ve” and the “HepaRG Cmax max All” value ([11]; HepaRG, all endpoints, Cmax max used) was “+ve”. For the same compound, the “HepaRG Cmax min All” value ([11]; HepaRG, all endpoints, Cmax min used) was “+ve”, the “HepaRG <10 uM All” value ([11]; HepaRG, all endpoints, cut-off <10 uM) was “+ve (<10 uM)” and the “HepaRG <100x Avg Cmaxu All” value ([11]; HepaRG, all endpoints, cut-off <100x Avg Cmaxu) was “+ve (<100x Avg Cmaxu)”. It also gave an AC50 ([11]; HepaRG, read-out: ATP endpoint AC50) of 2.11 µM, a minimal effective concentration ([11]; HepaRG, read-out: ATP endpoint MEC) of 1.21 µM and an AC50 ([11]; HepaRG, read-out: HCS endpoint AC50) of 2.25 µM. For the same compound, the minimal effective concentration ([11]; HepaRG, read-out: HCS endpoint MEC) was 0.768 µM and the “DILI prediction HepaRG spheroids (HCS-MEC)” value [11, 15] was “+VE (MEC < 25 × Cmax.tot cut-off)”.
